Data on 42 compounds can be found in the RepoRT retention time repository (doi:10.1002/minf.201400016).

The nature of this data set: RP, Waters ACQUITY UPLC HSS T3, 150 × 2.1 mm, 1.7 µm, 30 °C, 0.4 mL/min, estimated dead time 0.83 min; A: water + 0.2% formic acid; B: 2% water + 98% acetonitrile + 0.2% formic acid; gradient (min/%B) 0/0 2.5/0 7.5/10 10/100 12/100 18/0 25/0. Conditions: stereoisomer not certain.
`NCCCCCCCCN` [1-8-diaminooctane]: the LC retention time was 1.74 min.
The value for `Cn1cc(CC(N)C(=O)O)c2ccccc21` (configuration not stated) [1-methyltryptophan] was 9.17 min.
Under `O=C(O)Cn1ccc2ccccc21` [1H-indole-1-acetic acid] stands 9.71 min; under `c1ccc2[nH]ccc2c1` [1H-indole], 10.2 min.
Under `NC(CCCC(=O)O)C(=O)O` (configuration not stated) [2-aminoadipic acid] stands 1.73 min.
Regarding `Nc1cccc(C(=O)O)c1` [3-aminobenzoic acid], the LC retention time is 5.54 min.
The value for `O=C(O)C=Cc1cccc(O)c1` [3-coumaric acid] was 9.54 min; that for `O=C(O)c1cccc(O)c1` [3-hydroxybenzoic acid] was 9.31 min.
Under `CCC(C)C(=O)C(=O)O` (configuration not stated) [3-methyl-2-oxovaleric acid] stands 9.23 min; under `O=Cc1ccc(O)cc1` [4-hydroxybenzaldehyde], 9.4 min.
Turning to `CC(C)CC(=O)C(=O)O` [4-methyl-2-oxopentanoic acid], the LC retention time is 9.39 min.
Regarding `CSC[C@H]1O[C@@H](n2cnc3c(N)ncnc32)[C@H](O)[C@@H]1O` [5'-S-methyl-5'-thioadenosine], the LC retention time is 8.32 min.
Under `COc1ccc2ncccc2c1` [6-methoxyquinoline] stands 8.57 min.
Regarding `Cn1c[n+](C2OC(CO)C(O)C2O)c2nc(N)[nH]c(=O)c21` (configuration not stated) [7-methylguanosine], the LC retention time was 5.75 min.
The value for `CC(=CCNc1ncnc2c1ncn2C1OC(CO)C(O)C1O)CO` (stereo not drawn) [9-ribosyl-trans-zeatin] was 8.91 min; that for `Cc1cc(Cl)ccc1OCC(=O)O` [(4-chloro-2-methylphenoxy)acetic acid] was 10.3 min; that for `CCCCCCCCCCCCCCCC[C@@H](O)C(=O)O` [(R)-2-hydroxystearic acid] was 12.4 min.
For the compound `O=C[C@@H](O)[C@H](O)[C@H](O)[C@H](O)CO` [D-altrose], the LC retention time was 1.55 min.
For the compound `O=C(COP(=O)(O)O)[C@@H](O)[C@H](O)[C@H](O)CO` [D-fructose 1-phosphate], the LC retention time was 1.49 min.
Under `NCCCC[C@H](N)C(=O)O` [L-lysine] stands 1.23 min; under `NCCSCC(N)C(=O)O` [L-thialysine], 1.26 min.
In the case of `C[n+]1cccc(C(=O)[O-])c1` [N-methylnicotinate], the LC retention time was 1.73 min.
Under `O=C(O)CCCCC(=O)O` [adipic acid] stands 8.14 min; under `NC(=O)NC1NC(=O)NC1=O` (configuration not stated) [allantoin], 1.63 min; under `O=c1cc(-c2ccc(O)cc2)oc2cc(O)cc(O)c12` [apigenin], 9.92 min.
Under `CC(O)(CC(=O)O)C(=O)O` (configuration not stated) [citramalic acid] stands 5.17 min.
Under `NC(=O)NCCCC(N)C(=O)O` (configuration not stated) [citrulline] stands 1.55 min; under `Nc1ccnc(=O)[nH]1` [cytosine], 1.62 min.
Take `C=C1C(=O)OC2C1CCC(=C)C1CCC(=C)C12` (configuration not stated) [dehydrocostus lactone]: the LC retention time is 10.9 min.
For `Cc1cc(O)c2c(c1)C(=O)c1cc(O)cc(O)c1C2=O` [emodin], the LC retention time was 10.7 min.
For `O=c1ccc2cc(OC3OC(CO)C(O)C(O)C3O)c(O)cc2o1` (configuration not stated) [esculin hydrate], the LC retention time was 8.95 min.
In the case of `OCC1OC(OCC2OC(O)C(O)C(O)C2O)C(O)C(O)C1O` (configuration not stated) [gentiobiose], the LC retention time is 1.73 min.
Take `C[N+](C)(C)CC(=O)[O-]` [glycine betaine]: the LC retention time was 1.55 min.
Under `O=c1c(O)c(-c2ccc(O)cc2)oc2cc(O)cc(O)c12` [kaempferol] stands 9.98 min; under `CCC=CCC1C(=O)CCC1CC(=O)OC` (configuration not stated) [methyl jasmonate], 10.6 min; under `NC(=O)c1cccnc1` [nicotinamide], 3.33 min.
For the compound `O=C(O)C1CCCN1` (configuration not stated) [proline], the LC retention time was 1.73 min.
The value for `O=c1c(O)c(-c2ccc(O)c(O)c2)oc2cc(O)cc(O)c12` [quercetin] was 9.79 min; that for `Oc1cccc2cccnc12` [quinolin-8-ol] was 7.14 min.
The value for `CC(=CCNc1ncnc2nc[nH]c12)CO` [trans-zeatin] was 7.57 min.
Regarding `COc1cc(C(=O)O)ccc1O` [vanillic acid], the LC retention time was 9.27 min.
For the compound `COc1cc(C=O)ccc1O` [vanillin], the LC retention time was 9.53 min.
